The record followed here is patent US20050260219A1, “Carboxypeptidases B from anopheles gambiae. compositions comprising them, vaccine applications and use as therapeutical targets” (INSTITUT PASTEUR, priority 2004, published 2005).

Assay [1] deals with T1, recombinant CPBAg1 (Anopheles gambiae, UniProt Q702G3).
T1 sequence (Q702G3 20-423): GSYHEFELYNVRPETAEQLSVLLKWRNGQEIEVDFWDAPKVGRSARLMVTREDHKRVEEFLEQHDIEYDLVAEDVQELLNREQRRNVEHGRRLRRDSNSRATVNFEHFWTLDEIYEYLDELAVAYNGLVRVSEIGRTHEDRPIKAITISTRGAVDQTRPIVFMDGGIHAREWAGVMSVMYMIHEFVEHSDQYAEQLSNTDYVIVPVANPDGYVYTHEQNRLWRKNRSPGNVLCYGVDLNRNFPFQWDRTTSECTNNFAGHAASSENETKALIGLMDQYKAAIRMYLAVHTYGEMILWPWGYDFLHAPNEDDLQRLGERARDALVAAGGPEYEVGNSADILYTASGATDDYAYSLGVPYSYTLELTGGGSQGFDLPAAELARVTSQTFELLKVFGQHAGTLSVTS
Description: Carboxypeptidase activity assay on recombinant CPBAg1 with di-peptide substrates. Type of assay: biochemical. The following applies: for Enzyme activity: purified recombinant CPBAg1 from baculovirus, 1 mM substrate, 1 unit cleaves 1 μmol product/min. On the procedure: (§1) Carboxypeptidase activity was determined using the synthetic di-peptide substrates Hippuryl-Arginine (Hip-Arg), Hippuryl-Lysine (Hip-Lys) as carboxypeptidase B substrates and Hippuryl-Phenylalanine (Hip-Phe) as carboxypeptidase A substrate. All reagents were purchased from Sigma. Activities were assayed in 20 μl E buffer (100 mM NaCl/50 mM Hepes/100 μM ZnCl2 pH 7.2) containing 1 mM Hip-Arg, Hip-Lys or Hip-Phe. The reaction was initiated by adding an equal volume of His-tagged CPBAg1 (5 ng/μl in E buffer), incubated at 25° C. for 10-40 min, and stopped by the addition of 20 μl Ninhydrin reagent (Sigma, Lyon, France). The rate of the reaction was measured by estimating the amount of released amino acids using the ninhydrin procedure (60). One unit of enzyme activity was defined as μmol of amino acids released/min.
Estimation of Km and kcat was carried out after assays over a 500-fold range of Hip-Arg concentration (0.02-10 mM). Each concentration was assayed in triplicate. The kinetic parameters were derived from iterative non-linear least square fits of the Michaelis-Menten equation using the experimental data (61). Confidence limits for the fitted values were determined by 100 Monte Carlo iterations using the experimental standard deviations on individual measurements.
Activity of the purified recombinant CPBAg1 produced in baculovirus was assayed against the carboxypeptidase B di-peptide substrates Hippuryl-Arginine (Hip-Arg) and Hippuryl-Lysine (Hip-Lys) and the carboxypeptidase A di-peptide substrate Hippuryl-Phenylalanine (Hip-Phe). 1 unit cleaves 1 μmol product/min.

Assay [2] concerns P. falciparum development in An. gambiae. Description: Effect of CPB substrates, free L-arginine and free L-lysine added to infected blood meal on P. falciparum development in An. gambiae. The following applies: day 7 post feeding; for % Infected mosquitoes (number of dissected mosquitoes): pooled infections; for Mean number of oocysts (range): per positive midgut. The format is in vivo, Plasmodium falciparum. On the procedure: Asymptomatic village people (Senegal) or schoolchildren aged ≦10 years old (Cameroon) were mass-screened to detect parasite carriers as previously described (12). All participants were volunteers and the consent of the children's parents was obtained. The experimental protocols were approved by the Cameroonian and the Senegalese National Ethics Committees. Infections and control experiments were performed with the blood from gametocyte carrier volunteers and with the blood from parasite-free donors. Venous blood (10 ml) was collected in a heparin coated and pre-warmed tube, centrifuged for 5 minutes, 5,000 rpm, at 37° C. and the serum of the patient immediatly replaced with a prewarmed AB serum collected from donors not living in a malaria endemic country. For each experiment, batches of 60 nulliparous female mosquitoes (5 days old) starved from sugar for 24 h were fed for 10 minutes, using the artificial membrane feeding technique (24). Fully engorged females were maintained at the insectarium until dissection. For each experiment a control batch of mosquitoes was used to determine the rate and intensity of infection by oocyst detection on day 7 post feeding. These experiments were performed with a control providing an infection rate close to or above 50%. As described below these basic procedures for infecting An. gambiae with P. falciparum were modified to answer specific issues.
Mosquito infections were performed with the blood from volunteers harboring a low gametocytaemia, as described above, except that 10 μl of L-arginine (Sigma), L-lysine (Sigma), Hippuryl-Lysine (Sigma) or Hippuryl-Arginine (Sigma) at 10, 1, 0.1 and 0.01 mM in TrisHCl 50 mM pH 7.2 were added to 500 μl of P. falciparum infected blood just before mosquito feeding. As a control 10 μl of TrisHCl 50 mM pH 7.2 was added to the P. falciparum infected blood. Triplicate experiments using the blood of three different gametocyte carriers were performed except for L-lysine where only two experiments could be performed. Rate and intensity of infection were scored on day 7 after blood feeding by detection of oocysts on the mosquito midgut wall.
For the data presented in Table 4 (below), An. gambiae were fed on P. falciparum infected blood supplemented with CPB substrates: Hippuryl-Arginine or Hippuryl-Lysine. Proportion of infected mosquitoes and oocyst counts per positive midgut were determined on day 7 post feeding. For each substrate and concentration tested, data from three independent infections were pooled. […] The infected blood harboured few gametocytes resulting in a low infection rate in the control and thereby allowing the detection of the effect of carboxypeptidase substrates.
For the data presented in Table 5 (below), An. gambiae were fed on P. falciparum infected blood supplemented with L-arginine or L-lysine at three different concentrations. Proportion of infected mosquitoes and oocyst counts per positive midgut were determined on day 7 post feeding. Data were pooled from three independent infections for L-arginine experiments, and from two independent infections for L-lysine experiments.

Assay [3] addresses T1, recombinant CPBAg1. Description: Effect of inhibitors on CPBAg1 activity (Hip-Arg as substrate). Type of assay: biochemical. As to conditions: for Activity (%): relative to control without inhibitor. On the procedure:
as §1
Inhibitory effects of the chelating agent 1,10-phenantroline (Sigma, Lyon, France), and of the arginine analogue GEMSA (Guanidinoethylmercaptosuccinic acid, Fluka) on CPBAg1 activity were assayed as follows: different concentrations ([…]-1 mM) of inhibitors were preincubated at 25° C. for 30 min with the recombinant protein in E buffer before addition of Hip-Arg. Activity was measured as described above and was expressed as the percentage of activity relative to controls performed in absence of inhibitor.
Accordingly, CPBAg1 activity was inhibited by the active site-directed inhibitor GEMSA, which is an arginine analogue (Table 2). Activity of the purified recombinant CPBAg1 produced in the baculovirus was assayed after incubation with the zinc-carboxypeptidase inhibitor 1,10-phenantroline and the active site-directed inhibitor GEMSA, using Hyp-Arg as substrate. 100% activity corresponds to 1.1 and 0.8 unit/mg for 1,10-phenanatroline and GEMSA experiments, respectively.

Residues, ends and D or L forms follow the SMILES beside them. *: point of attachment. Bz = O=C(c1ccccc1)*

Take `O=C(CNC(=O)c1ccccc1)N[C@@H](Cc1ccccc1)C(=O)O` [Hip-Phe, Hippuryl-Phenylalanine] (Bz-Gly-Phe-OH): the Enzyme activity on recombinant CPBAg1 [1] was 0 unit/mg.

As to `N=C(N)NCCC[C@H](N)C(=O)O` [L-arginine], the “% Infected mosquitoes (number of dissected mosquitoes)” value (“% Infected mosquitoes” for short) in assay [2] (100 μM) was 38.4 (86) %; in assay [2] (1 mM), 34.4 (64) %; in assay [2] (10 mM), 55.2 (58) %. Besides, the “Mean number of oocysts (range)” value in assay [2] (100 μM) is 3.2 (1-13); in assay [2] (1 mM) it was 5.3 (1-26); in assay [2] (10 mM), 5.2 (1-31).

`N=C(N)NCCC[C@H](NC(=O)CNC(=O)c1ccccc1)C(=O)O` [Hippuryl-Arginine] (Bz-Gly-Arg-OH): the “% Infected mosquitoes” value in assay [2] (10 μM) is listed as 26.3 (80) %; in assay [2] (100 μM), 40.9 (88) %; in assay [2] (1 mM), 28 (50) %. Besides, the “Mean number of oocysts (range)” value is given as 2.3 (1-10) in assay [2] (10 μM), 2.1 (1-7) in assay [2] (100 μM) and 2.1 (1-8) in assay [2] (1 mM). In addition, the Enzyme activity at recombinant CPBAg1 [1] turned out to be 0.83 ± 0.01 unit/mg. Moreover, the “activity against Hip-Arg relative to Hip-Lys” value on recombinant CPBAg1 [1] (ratio of enzyme activities of Table 1) is on record as “approximately 3.5 times”.

Consider `NCCCC[C@H](N)C(=O)O` [L-lysine], for which the results for the “% Infected mosquitoes” value in assay [2] (10 μM), in assay [2] (100 μM) and in assay [2] (1 mM) were 62.9 (35) %, 42.1 (38) % and 30.5 (36) %, respectively. For the same compound, the “Mean number of oocysts (range)” value in assay [2] (10 μM) was 8.2 (1-18); in assay [2] (100 μM) it was 4.9 (1-15); in assay [2] (1 mM), 8.3 (1-44).

`c1cnc2c(c1)ccc1cccnc12` [1,10-phenantroline]: the “Activity (%)” value at recombinant CPBAg1 [3] (inhibitor 0.1 μM) stood at 96 ± 2%; at recombinant CPBAg1 [3] (inhibitor 10 μM) it was 87 ± 8%; on recombinant CPBAg1 [3] (inhibitor 100 μM), 35 ± 5%; on recombinant CPBAg1 [3] (inhibitor 1000 μM) it was 24 ± 5%.

Regarding `N=C(N)NCCSC(CC(=O)O)C(=O)O` (stereo not drawn) [GEMSA, Guanidinoethylmercaptosuccinic acid], at recombinant CPBAg1 [3], the activity at 0.1 µM stood at 96 ± 2%, the activity at 10 µM turned out to be 41%, the activity at 100 µM was found to be 20 ± 2% and the activity at 1000 µM came out at 7 ± 11%.

Consider `NCCCC[C@H](NC(=O)CNC(=O)c1ccccc1)C(=O)O` [Hippuryl-Lysine] (Bz-Gly-Lys-OH), for which the “% Infected mosquitoes” value in assay [2] (100 μM) is recorded as 41.1 (90) %; in assay [2] (1 mM), 46.7 (92) %; in assay [2] (10 mM) it was 23.8 (80) %. In addition, the “Mean number of oocysts (range)” value is 2.4 (1-6) in assay [2] (100 μM), 2.5 (1-12) in assay [2] (1 mM) and 2.1 (1-6) in assay [2] (10 mM). The Enzyme activity on recombinant CPBAg1 [1] was determined as 0.24 ± 0.02 unit/mg.
